Measurements taken from patent US5420106A, “Method and composition having enhanced alpha-hydroxy acid skin permeation and retention” (priority 1994, dated 1995).

Key:
[1] = In-vitro skin permeation study of lactic acid, Franz diffusion cell at finite dose (14C-lactic acid); format: in vitro ADME
Method: The skin permeation test was conducted by the following procedure:
In-vitro Skin Permeation Study
(§1) Franz Diffusion Cell Study at Finite Dose
(§2) For each formulation, skin sections were mounted on three or four flat flange Franz diffusion cells (FDC 400) with a diffusional cross-section area of 1.2cm^2. About 60 to 100 mg of test formulation were placed on the stratum corneum surface of the skin in the donor compartment and the receptor compartment was filled with about 11 ml of normal saline. The receptor fluid was well stirred throughout the experiment and the temperature was maintained by circulating water at 37° C. through the water jacket of the diffusion cells. Precisely 500 μl of receptor fluid was collected in a scintillation vial at appropriate intervals for a period of 68 hours. […] The receptor fluid was replenished after each withdrawal. All the receptor fluid and replenished fluids were filtered using a 0.22 μm filter and thoroughly degassed before use.

[2] = hydrated skin; cited from earlier work
[3] = cited from earlier work
[4] = in vivo; cited from earlier work
[5] = Skin retention of lactic acid (epidermis and dermis analysis after the permeation study); format: in vitro ADME
Method: as §1, §2
Cotton swabs were used during the rinsing procedure to recover the remaining surface dose. A circular incision was made in the skin exposed to the formulation. The epidermis at the circular edge was slowly lifted using a pointed flat spatula, and then separated from the dermis using forceps. The epidermis and dermis were transferred to previously weighed teflon tape and dried in a desiccator for 72 hours until a constant weight was obtained. […]

In the case of CCCCCCCCCCCCCC(=O)OC(C)C [IPM, isopropyl myristate], the “skin permeation enhancer effect for lactic acid” value ([1]; FIGS. 1-2, IPM vs PGD in lysine lactate lotions) is reported as “better skin permeation enhancer for lactic acid than PGD”.

With CC(C)[C@H](N)C(=O)O [valine] the “enhancement of skin permeation of lactic acid by valine” value [1] was “does not enhance skin permeation of lactic acid”.

In the case of CC(C)NCC(O)COc1cccc2ccccc12 (centres unmarked) [propranolol], the “permeation or permeation rate on hydration of skin” value [2] is given as “decreases the permeation rate by two fold”.

For CC(O)C(=O)O (centres unmarked) [ammonium lactate], the “potency for other dermatological disorders” value ([3]; U.S. Pat. No. 5,091,171, topical ammonium salts) is listed as “lost most of its potency”, the “effectiveness in treating dermatological disorders” value ([3]; topical) is listed as “very effective” and the skin irritation [4] is listed as “skin irritant to a degree which many patients find unacceptable”. The “skin retention of lactic acid / α-hydroxy acid (general finding)” value [5] was “excellent lactic acid skin permeation and skin retention profiles” and the “skin retention of lactic acid” value ([5]; pH 4.6) was “excellent skin retention”.
